This passage reports inhibition results from US11584737B2, “Heterocyclic compound” (TAKEDA PHARMACEUTICAL COMPANY LIMITED, priority 2018, dated 2023).

Each structure is given as a SMILES string.

The target in assay [1] is CDK12/CycK complex (Homo sapiens, UniProt Q9NYV4). In words: Measurement of CDK12 inhibitory activity by binding assay (TR-FRET, 66 nM BODIPY-FL-labeled AT-7519). Conditions: inhibitory rate against CDK12 at 1 μM test compound, 66 nM BODIPY-FL-labeled AT-7519, 2 nM CDK12/CycK. On the procedure: Experimental Example 1: CDK12 Binding Assay
CDK12/CycK complex, sequence (Q9NYV4 whole entry, species assumed): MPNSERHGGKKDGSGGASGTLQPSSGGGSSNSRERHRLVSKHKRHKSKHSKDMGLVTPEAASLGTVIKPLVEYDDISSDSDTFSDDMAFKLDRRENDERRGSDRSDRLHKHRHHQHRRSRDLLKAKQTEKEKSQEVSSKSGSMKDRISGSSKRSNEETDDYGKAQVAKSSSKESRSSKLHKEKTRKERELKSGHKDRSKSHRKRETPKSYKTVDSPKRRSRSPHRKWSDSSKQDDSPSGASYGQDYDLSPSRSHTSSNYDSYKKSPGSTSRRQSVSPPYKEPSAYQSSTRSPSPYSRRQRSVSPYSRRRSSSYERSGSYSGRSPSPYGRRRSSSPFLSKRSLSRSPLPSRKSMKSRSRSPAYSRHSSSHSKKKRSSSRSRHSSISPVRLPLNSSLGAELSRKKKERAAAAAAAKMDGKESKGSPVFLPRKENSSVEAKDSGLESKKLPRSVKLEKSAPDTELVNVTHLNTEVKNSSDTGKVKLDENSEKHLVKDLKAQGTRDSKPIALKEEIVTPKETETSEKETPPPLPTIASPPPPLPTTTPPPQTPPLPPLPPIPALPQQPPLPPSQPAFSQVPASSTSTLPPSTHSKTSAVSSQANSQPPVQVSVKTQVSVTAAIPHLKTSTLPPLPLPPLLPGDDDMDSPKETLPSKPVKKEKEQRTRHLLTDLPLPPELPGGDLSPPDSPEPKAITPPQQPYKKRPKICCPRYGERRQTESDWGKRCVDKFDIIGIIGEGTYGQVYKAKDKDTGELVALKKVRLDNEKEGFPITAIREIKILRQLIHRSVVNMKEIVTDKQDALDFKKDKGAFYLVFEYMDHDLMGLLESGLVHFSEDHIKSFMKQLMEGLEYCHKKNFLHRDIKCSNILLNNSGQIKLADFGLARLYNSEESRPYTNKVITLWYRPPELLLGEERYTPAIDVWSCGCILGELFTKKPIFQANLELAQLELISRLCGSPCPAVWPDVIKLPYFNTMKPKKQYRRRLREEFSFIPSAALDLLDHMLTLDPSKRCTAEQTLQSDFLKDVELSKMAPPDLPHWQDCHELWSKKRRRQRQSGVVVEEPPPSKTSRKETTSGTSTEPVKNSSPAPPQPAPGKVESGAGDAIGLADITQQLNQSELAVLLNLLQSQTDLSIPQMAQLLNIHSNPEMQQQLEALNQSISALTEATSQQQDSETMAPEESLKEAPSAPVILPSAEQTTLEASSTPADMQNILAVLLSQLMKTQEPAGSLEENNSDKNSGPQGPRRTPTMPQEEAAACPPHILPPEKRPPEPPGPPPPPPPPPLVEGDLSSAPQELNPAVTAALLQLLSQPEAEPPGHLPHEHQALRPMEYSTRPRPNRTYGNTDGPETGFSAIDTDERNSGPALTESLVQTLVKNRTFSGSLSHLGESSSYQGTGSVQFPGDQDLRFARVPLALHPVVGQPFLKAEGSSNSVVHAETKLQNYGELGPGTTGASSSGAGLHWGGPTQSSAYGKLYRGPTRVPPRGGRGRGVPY
CDK12/CycK complex, sequence (O75909 whole entry partner, species assumed): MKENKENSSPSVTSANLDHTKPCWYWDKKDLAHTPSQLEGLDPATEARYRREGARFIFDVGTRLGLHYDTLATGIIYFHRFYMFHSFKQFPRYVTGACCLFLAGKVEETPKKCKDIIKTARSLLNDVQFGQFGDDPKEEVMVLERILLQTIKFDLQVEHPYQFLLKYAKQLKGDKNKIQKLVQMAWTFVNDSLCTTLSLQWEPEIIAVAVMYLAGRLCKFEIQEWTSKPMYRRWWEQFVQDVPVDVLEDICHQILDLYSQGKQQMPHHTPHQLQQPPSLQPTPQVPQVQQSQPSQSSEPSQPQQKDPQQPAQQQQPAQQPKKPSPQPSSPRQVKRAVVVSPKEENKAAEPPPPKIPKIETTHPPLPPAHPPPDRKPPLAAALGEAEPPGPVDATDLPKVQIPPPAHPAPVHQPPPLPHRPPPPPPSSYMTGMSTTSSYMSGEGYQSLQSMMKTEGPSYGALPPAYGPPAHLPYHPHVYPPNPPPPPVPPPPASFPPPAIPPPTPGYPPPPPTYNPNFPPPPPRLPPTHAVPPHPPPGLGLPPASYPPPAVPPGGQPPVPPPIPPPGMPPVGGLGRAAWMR
(3) Measurement of CDK12 Inhibitory Activity by Binding Assay
His-tagged CDK12/CycK complex was added to a binding assay buffer supplemented with BODIPY-FL labeled AT-7519, terbium-labeled streptavidin and biotin-labeled anti-histidine antibody, and the mixture was stood for not less than 60 min at room temperature. This solution was added to an assay plate containing a test compound dispensed therein, and the mixture was left standing for 120 min at room temperature. The final concentration of CDK12/CycK complex, BODIPY-FL-labeled AT-7519, terbium-labeled streptavidin and biotin-labeled anti-histidine antibody was set to 2 nM, 66 nM, 0.2 nM, and 0.4 nM, respectively. The fluorescence intensity derived from terbium and BODIPY-FL was measured using Envision. The signal value of each well was determined using the TR-FRET ratio calculated by the following formula. TR-FRET ratio=(fluorescence value of BODIPY-FL)÷(fluorescence value of terbium)
The inhibitory rate (%) of the test compound against CDK12 was calculated by the following formula. Inhibitory rate (%)=(1−(TR-FRET ratio of test compound−blank)÷(control−blank))×100
The TR-FRET ratio of the CDK12 enzyme reaction mixture under compound non-addition conditions is indicated as control, and the TR-FRET ratio under 3 μM AT-7519 addition conditions is indicated as blank.
The inhibitory rate of the test compound against CDK12 at […] is shown below.
(In general: Time-resolved FRET reads energy transfer from a long-lived donor to a nearby acceptor.)

Assay [2] concerns A2780 intracellular CTD pSer2. In words: CTD pSer2 measurement using human ovarian cancer cell A2780 and In-Cell Western method. It is filed as cell-based. The note with it: inhibitory rate against A2780 intracellular CTD pSer2 at 1 μM test compound, 4 hr. On the procedure: Experimental Example 3: CTD pSer2 Measurement Using Human Ovarian Cancer Cell A2780 and In-Cell Western Method
A2780 cells (ATCC) were seeded in a 96 well plate at 1.8×10^4 cells/well, and the cells were cultured overnight in a cell culture medium RPMI1640 (FUJIFILM Wako Pure Chemical Corporation) containing 10% FBS (fetal bovine serum) and 1% penicillin/streptomycin. A test compound dissolved in a cell medium was added, and the mixture was stood for 4 hr in a CO2 incubator (37° C.). The cells were fixed with ALTFiX (Falma) for 30 min, and washed 3 times with a washing buffer (20 mM Tris-HCl (pH 7.5), 500 mM NaCl, 0.1% Tween20). 0.1% Triton-X-100 diluted with PBS(−) was added and the mixture was incubated at room temperature for 15 min. Thereafter, a blocking buffer (LI-COR) was added, and the mixture was incubated at room temperature for 1 hr. An anti-CTD pS2 antibody (Abcam) suspended in an antibody diluent (blocking buffer: PBS(−)-diluted 0.1% Tween20=1:1) was added, and the mixture was incubated at room temperature for 1 hr. The mixture was […] with a washing buffer, IRDye800CW-labeled anti-goat antibody (LI-COR) was added, and the mixture was incubated at room temperature for 1 hr. The mixture was washed 3 times with a washing buffer, and the fluorescence wavelength at 800 nm was measured by Aerius (LI-COR).
The inhibitory rate (%) of the test compound against A2780 intracellular CTD pSer2 was calculated by the following formula. Inhibitory rate (%)=(1−(count of test compound−blank)÷(control−blank))×100
The count of the A2780 cell under compound non-addition conditions is indicated as control, and the count under compound non-addition and primary antibody non-addition conditions is indicated as blank.
The results measured by the above-mentioned method (inhibitory rate of the signal value at 1 μM test compound relative to control) are shown below.

For assay [3], the target named is CDK12/CycK enzyme (Homo sapiens, UniProt Q9NYV4). In words: Measurement of CDK12/CycK inhibitory activity (ULight-4E-BP1 peptide phosphorylation, LANCE). It is filed as biochemical. The note with it: inhibitory rate against CDK12/CycK at 1 μM test compound, ATP 10 μM or 500 μM. On the procedure: Experimental Example 2: Measurement of CDK12/CycK Inhibitory Activity
CDK12/CycK enzyme, sequence (Q9NYV4 whole entry, species assumed): as the sequence (Q9NYV4 whole entry, species assumed) above
CDK12/CycK enzyme, sequence (O75909 whole entry partner, species assumed): as the sequence (O75909 whole entry partner, species assumed) above
A test compound dissolved in DMSO was added to a reaction solution (50 mM HEPES (pH 7.5), 10 mM MgCl2, 1 mM DTT, 0.01% Tween 20, 0.01% BSA) containing CDK12/CycK enzyme and ULight-labeled eIF4E-binding protein 1 (4E-BP1) (Thr37/Thr46) peptide (PerkinElmer), and the mixture was reacted at room temperature for 60 min. […] was added to give an ATP solution with a final concentration of 10 μM or 500 μM to start the enzyme reaction, and the mixture was reacted at room temperature for 60 min. A LANCE Detection buffer (PerkinElmer) containing europium-labeled anti-phosphorylation 4E-BP1 (Thr37/Thr46) antibody (PerkinElmer) and EDTA (final concentration 10 mM) was added to discontinue the reaction. After standing for 60 min, time decomposition fluorescence value (excitation 320 nm, emission 615 nm, 665 nm) was measured by Envision (PerkinElmer). The inhibitory rate (%) of the test compound against CDK12/CyclinK was calculated by the following formula. Inhibitory rate (%)=(1−(count of test compound−blank)÷(control−blank))×100
The count of the CDK12 enzyme reaction mixture under compound non-addition conditions is indicated as control, and the count under compound non-addition and CDK12/CycK enzyme non-addition conditions is indicated as blank.
The results measured by the above-mentioned method (inhibitory rate (%) of the signal value at 1 μM test compound relative to control is shown below.

The test system of assay [4] is A2780 cells. Put plainly: In vitro proliferation suppression test (CellTiter-Glo). The note with it: Homo sapiens, 72 h, A2780 cell proliferation inhibitory rate at 1 μM test compound, three days. It is filed as cell-based, human. On the procedure: Experimental Example 4: In Vitro Proliferation Suppression Test
The proliferation suppressive activity of compound in A2780 cells was evaluated by the following method.
A2780 cells were seeded in a 384-well white plate at a cell density of 1,000 cells/40 μL/well or a 96-well white plate at a cell density of 1,000 cells/90 μL/well using an assay medium (RPMI1640 medium containing 10% fetal bovine serum (FUJIFILM Wako Pure Chemical Corporation)) and incubated at 37° C. in 5% CO2.
The next day, a test compound dissolved in dimethyl sulfoxide (DMSO) was diluted with an assay medium, the obtained compound solution was added by 40 μL/well or 10 μL/well to each well of the plate containing A2780 cells and the mixture was incubated (test compound addition group). In addition, a similar reaction was performed without adding the test compound (test compound non-addition group).
Three days later, 80 μL or 100 μL of CellTiter-Glo reagent (Promega) was added, and the mixture was stirred for 10 min. Thereafter, the luminescence of each well was measured by ARVO-MX multilabel counter (Perkin Elmer Inc.).
The proliferation inhibitory rate (%) of each test compound against A2780 cells was calculated by the following calculation formula. Proliferation inhibitory rate (%)=(1−luminescence of test compound addition group÷luminescence of test compound non-addition group)×100
The A2780 cell proliferation inhibitory rate (%) of 1 μM test compound is shown below.
For orientation: In ATP-based viability assays light output follows the ATP content of the culture.

The term inhibition denotes the drop in the measured response relative to a control, in per cent. As for `Cn1cc(-c2ccc(N(C(=O)NCc3ccccc3)[C@H]3CC[C@H](Nc4ncc(C#N)c(NC5COC5)n4)CC3)nc2)cn1` [Example 319, 3-benzyl-1-(trans-4-((5-cyano-4-(oxetan-3-ylamino)pyrimidin-2-yl)amino)cyclohexyl)-1-(5-(1-methyl-1H-pyrazol-4-yl)pyridin-2-yl)urea], the inhibition at 1 µM in assay [1] was determined as 94%; in assay [2] it was 69%; in assay [3] it was 98%; in assay [4], 97%.

For the compound `COc1ncc(-c2ccc(N(C(=O)OCc3ccccc3)[C@H]3CC[C@H](Nc4ncc(C#N)c(NC5COC5)n4)CC3)nc2)cn1` [Example 581, benzyl (trans-4-((5-cyano-4-(oxetan-3-ylamino)pyrimidin-2-yl)amino)cyclohexyl) (5-(2-methoxypyrimidin-5-yl)pyridin-2-yl)carbamate], the inhibition at 1 µM was found to be 88% in assay [1], 70% in assay [2], 102% in assay [3] and 99% in assay [4].

Consider `Cn1cc(-c2ccc(N(C(=O)NCc3ccccc3)[C@H]3CC[C@H](Nc4ncc(C#N)c(-c5[nH]ncc5Cl)n4)CC3)nc2)cn1` [Example 536, 3-benzyl-1-(trans-4-((4-(4-chloro-1H-pyrazol-5-yl)-5-cyanopyrimidin-2-yl)amino)cyclohexyl)-1-(5-(1-methyl-1H-pyrazol-4-yl)pyridin-2-yl)urea], for which the inhibition at 1 µM in assay [1] was found to be 96%; in assay [2] it was 82%; in assay [3] it was 95%; in assay [4], 91%.

`COc1ncc(-c2ccc(N(C(=O)NCc3ccccc3)[C@H]3CC[C@H](Nc4ncc(C#N)c(OC5COC5)n4)CC3)nc2)cn1` [Example 609, 3-benzyl-1-(trans-4-((5-cyano-4-(oxetan-3-yloxy)pyrimidin-2-yl)amino)cyclohexyl)-1-(5-(2-methoxypyrimidin-5-yl)pyridin-2-yl)urea]: the inhibition at 1 µM in assay [1] came out at 99%; in assay [2] it was 41%; in assay [3], 107%; in assay [4], 99%.

With `Cn1ccc(-c2ccc(N(C(=O)NCc3ccccc3)[C@H]3CC[C@H](Nc4ncc(C#N)c(NC5COC5)n4)CC3)cc2)cc1=O` [Example 530, 3-benzyl-1-(trans-4-((5-cyano-4-(oxetan-3-ylamino)pyrimidin-2-yl)amino)cyclohexyl)-1-(4-(1-methyl-2-oxo-1,2-dihydropyridin-4-yl)phenyl) urea], the inhibition at 1 µM was found to be 100% in assay [1], 64% in assay [2], 104% in assay [3] and 97% in assay [4].

Regarding `COc1ncc(-c2ccc(N(C(=O)NCc3ccccc3)[C@H]3CC[C@H](Nc4ncc(C(F)(F)F)c(NC5COC5)n4)CC3)nc2)cn1` [Example 589, 3-benzyl-1-(5-(2-methoxypyrimidin-5-yl)pyridin-2-yl)-1-(trans-4-((4-(oxetan-3-ylamino)-5-(trifluoromethyl)pyrimidin-2-yl)amino)cyclohexyl) urea], the inhibition at 1 µM in assay [1] came to 100%; in assay [2], 78%; in assay [3], 115%; in assay [4] it was 97%.

`COc1ncc(-c2ccc(N(C(=O)NCc3ccccc3)[C@H]3CC[C@H](Nc4ncc(C#N)c(NC5COC5)n4)CC3)nc2)cn1` [Example 553, 3-benzyl-1-(trans-4-((5-cyano-4-(oxetan-3-ylamino)pyrimidin-2-yl)amino)cyclohexyl)-1-(5-(2-methoxypyrimidin-5-yl)pyridin-2-yl)urea]: the inhibition at 1 µM in assay [1] stood at 100%; in assay [2] it was 74%; in assay [3], 106%; in assay [4], 98%.

For the compound `Cn1cc(-c2ccc(N(C(=O)NCc3ccccc3)[C@H]3CC[C@H](Nc4ncc(C#N)c(OC5COC5)n4)CC3)nc2)cn1` [Example 485, 3-benzyl-1-(trans-4-((5-cyano-4-(oxetan-3-yloxy)pyrimidin-2-yl)amino)cyclohexyl)-1-(5-(1-methyl-1H-pyrazol-4-yl)pyridin-2-yl)urea], the inhibition at 1 µM in assay [1] was 102%; in assay [2], 63%; in assay [3], 103%; in assay [4], 97%.

`Cn1cc(-c2ccc(N(C(=O)NCc3ccccc3)[C@H]3CC[C@H](Nc4ncc(C(F)(F)F)c(N5CCC6(COC6)C5)n4)CC3)nc2)cn1` [Example 566, 3-benzyl-1-(5-(1-methyl-1H-pyrazol-4-yl)pyridin-2-yl)-1-(trans-4-((4-(2-oxa-6-azaspiro[3.4]octa-6-yl)-5-(trifluoromethyl)pyrimidin-2-yl)amino)cyclohexyl)urea]: the inhibition at 1 µM is 102% in assay [1], 72% in assay [2], 100% in assay [3] and 98% in assay [4].

Consider `COc1ncc(-c2ccc(N(C(=O)NCc3ccccc3)[C@H]3CC[C@H](Nc4ncc(C(F)(F)F)c(OC5COC5)n4)CC3)nc2)cn1` [Example 588, 3-benzyl-1-(5-(2-methoxypyrimidin-5-yl)pyridin-2-yl)-1-(trans-4-((4-(oxetan-3-yloxy)-5-(trifluoromethyl)pyrimidin-2-yl)amino)cyclohexyl)urea], for which the inhibition at 1 µM in assay [1] amounted to 99%; in assay [2] it was 75%; in assay [3], 100%; in assay [4], 98%.
